Results as given in publication PMC7126098 (Bioorganic & Medicinal Chemistry, 2019).

Key:
[1] = system: herpes simplex virus-1 (KOS strain); assay: Inhibition of virus-induced cytopathicity, HSV-1; type: cell-based; conditions: anti-HSV screening in HEL cells
[2] = system: herpes simplex virus-2 (G strain); assay: Inhibition of virus-induced cytopathicity, HSV-2; type: cell-based; conditions: Human alphaherpesvirus 2, HEL, read-out: EC50 HSV-2
[3] = system: eight human cancer cell lines; assay: Cytostatic activity against panel of human cell lines; type: cell-based; conditions: for IC50: Homo sapiens, read-out: cytostatic activity (IC50 range over cell lines)
[4] = Stability towards light and air; type: physicochemical
[5] = system: human cytomegalovirus (HCMV) (AD-169 strain and Davis strain); assay: Inhibition of virus-induced cytopathogenicity, HCMV in HEL cells; type: cell-based
HSV-1 TK = conditions: relative to ACV; cited from earlier work
[6] = system: pancreatic adenocarcinoma Capan-1 cell line; assay: Cytostatic activity against Capan-1; type: cell-based, human
cell culture = conditions: at concentrations up to 100 µg/mL; cited from earlier work

O=c1c2ncn(CCC(CO)CO)c2nc2[nH]c(-c3ccccc3)cn12 [9a, 3-(4-Hydroxy-3-(hydroxymethyl)butyl)-6-phenyl-3,5-dihydro-9H-imidazo[1,2-a]purin-9-one]
antiviral activity (in words) [1]: inactive

O=c1c2ncn(CCC(CO)CO)c2nc2[nH]c(-c3ccc(F)cc3)cn12 [9b, 6-(4-Fluorophenyl)-3-(4-hydroxy-3-(hydroxymethyl)butyl)-3,5-dihydro-9H-imidazo[1,2-a]purin-9-one]
EC50 [2]: 28 to 40.9 µM

O=c1c2ncn(CCC(CO)CO)c2nc2[nH]c(-c3ccc(Cl)cc3)cn12 [9c, 6-(4-Chlorophenyl)-3-(4-hydroxy-3-(hydroxymethyl)butyl)-3,5-dihydro-9H-imidazo[1,2-a]purin-9-one]
antiviral activity (in words) [1]: inactive

Cc1ccc(-c2cn3c(=O)c4ncn(CCC(CO)CO)c4nc3[nH]2)cc1 [9d, 3-(4-Hydroxy-3-(hydroxymethyl)butyl)-6-(p-tolyl)-3,5-dihydro-9H-imidazo[1,2-a]purin-9-one]
antiviral activity (in words) [1]: inactive

O=c1c2ncn(CCC(CO)CO)c2nc2[nH]c(-c3ccc(C(F)(F)F)cc3)cn12 [9e, 3-(4-Hydroxy-3-(hydroxymethyl)butyl)-6-(4-(trifluoromethyl)phenyl)-3,5-dihydro-9H-imidazo[1,2-a]purin-9-one]
IC50 [3]: 12.5 to 76.1 µM | EC50 [2]: 28 to 40.9 µM

O=c1c2ncn(CCC(CO)CO)c2nc2[nH]c(-c3ccc4c(c3)OCO4)cn12 [9i, 6-(Benzo[d][1,3]dioxol-5-yl)-3-(4-hydroxy-3-(hydroxymethyl)butyl)-3,5-dihydro-9H-imidazo[1,2-a]purin-9-one]
EC50 [2]: 28 to 40.9 µM

O=c1c2ncn(CCC(CO)CO)c2nc2[nH]c(-c3ccc(Oc4ccccc4)cc3)cn12 [9j, 3-(4-Hydroxy-3-(hydroxymethyl)butyl)-6-(4-phenoxyphenyl)-3,5-dihydro-9H-imidazo[1,2-a]purin-9-one]
antiviral activity (in words) [1]: inactive | IC50 [3]: 16.9 to 90.4 µM

O=c1c2ncn(CCCCO)c2nc2[nH]c(-c3ccc(C(F)(F)F)cc3)cn12 [10e, 3-(4-Hydroxybutyl)-6-(4-(trifluoromethyl)phenyl)-3,5-dihydro-9H-imidazo[1,2-a]purin-9-one]
cytostatic activity (in words) ([3]; range of cancer cell lines): most effective

O=c1c2ncn(CCCCO)c2nc2[nH]c(-c3cccs3)cn12 [10h, 3-(4-Hydroxybutyl)-6-(thiophen-2-yl)-3,5-dihydro-9H-imidazo[1,2-a]purin-9-one]
stability towards light and air [4]: stable enough to be collected safely

Nc1nc2c(ncn2CCCCO)c(=O)[nH]1 [HBG, hydroxybutylguanine]
activity against HCMV (in words) [5]: inactive | affinity for HSV-1 TK (in words) (HSV-1 TK): higher affinity for HSV-1 TK than ACV | inhibition of proliferation of Capan-1 (in words) [6]: slightly inhibited

Nc1nc2c(ncn2CCC(CO)CO)c(=O)[nH]1 [PCV, penciclovir]
toxicity in cell culture (cell culture): did not exhibit any toxicity | activity against HCMV (in words) [5]: not inhibitory | inhibition of proliferation of Capan-1 (in words) [6]: slightly inhibited
